Measured values: PubChem BioAssay (NCI)
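Cultured in 96-well plates, cells were exposed to test compound for 48 hours across five concentrations. GI50 = concentration required for 50% inhibition of growth. At the TGI there is no net growth.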

Assays:
Experiment in all cases: NCI tumour cell line growth inhibition, 48 h
NCI-H23 lung = system: NCI-H23 lung
SN12C renal = system: SN12C renal
OVCAR-8 ovarian = system: OVCAR-8 ovarian
786-0 renal = system: 786-0 renal
MDA-MB-435 = system: MDA-MB-435
MDA-MB-231 breast = system: MDA-MB-231 breast
NCI-H522 lung = system: NCI-H522 lung

| SMILES | TGI (NCI-H23 lung) [µM] | TGI (SN12C renal) [µM] | TGI (OVCAR-8 ovarian) [µM] | TGI (786-0 renal) [µM] | TGI (MDA-MB-435) [µM] | TGI (MDA-MB-231 breast) [µM] | TGI (NCI-H522 lung) [µM] | GI50 (NCI-H23 lung) [µM] | GI50 (SN12C renal) [µM] | GI50 (MDA-MB-435) [µM] | GI50 (MDA-MB-231 breast) [µM] | GI50 (NCI-H522 lung) [µM] |
| --- | --- | --- | --- | --- | --- | --- | --- | --- | --- | --- | --- | --- |
| Cc1c(S(=O)(=O)/N=C(\NO)Nc2ccc(Cl)c(Cl)c2)sc2ccc(Cl)cc12 | 36.6 | 35.8 | 46.6 | 39.6 | 37.3 | 55.3 | 41.3 |  |  |  |  |  |
| O=C1C(CN2CCCCC2)CCC1CN1CCCCC1 (stereo not drawn) | 53.7 | 45.5 | > 68.9 | 41.7 | 51.8 | 42.3 | 11.1 |  |  |  |  |  |
| COC(CNC(=O)C(C)NC(=O)CCc1ccccc1)OC (stereo not drawn) | > 100 | > 100 | > 100 | > 100 | > 100 | > 100 | > 100 |  |  |  |  |  |
| CON(C)C(=O)CNC(=O)OCC1c2ccccc2-c2ccccc21 | > 100 | > 100 | > 100 | > 100 | > 100 | > 100 | > 100 |  |  |  |  |  |
| OCC(O)COCn1nncc1Cn1ncc2c(SCc3ccccc3)ncnc21 (stereo not drawn) | > 100 | > 100 | > 100 | > 100 | > 100 | > 100 | 33.1 |  |  |  |  |  |
| CCOC(=O)c1nc2ccc(C(F)(F)F)cc2nc1NCc1cc(OC)c(OC)c(OC)c1 | > 100 | > 100 | > 100 | > 100 | > 100 | > 100 | > 100 |  |  |  |  |  |
| O=C1CC(=Nc2ccc(Cl)cc2)C(c2ccccc2)N1c1ccccc1 (stereo not drawn) | 70.9 | > 100 |  | > 100 | 6.32 | 85.2 | 7.22 |  |  |  |  |  |
| CC(=O)OC(/C=C/c1ccccc1)=C(OC(C)C)/C1=C(\c2ccccc2)SCCCSC1=O | > 100 |  | > 100 | > 100 | > 100 | > 100 |  |  |  |  |  |  |
| CC1OC(OC2C(O[C@H]3CC[C@@]4(C)C(=CC[C@H]5[C@@H]6C[C@@H]7O[C@]8(CC[C@@H](CO)CO8)[C@@H](C)[C@@H]7[C@@]6(C)CC[C@@H]54)C3)OC(CO)C(O)C2OC2OC(CO)C(O)C(O)C2O)C(O)C(O)C1O (stereo partly drawn) | 4.07 | 3.21 | 3.46 | 3.3 | 3.48 | 3.25 | 3.19 |  |  |  |  |  |
| COc1cc(CNCc2cc(OC)c(OC)c(OC)c2)cc(OC)c1OC | > 10 | > 10 | > 10 | > 10 | > 10 | > 10 | > 6.46 |  |  |  |  |  |
| CCOC(=O)N/N=C(/N)c1cccc([N+](=O)[O-])c1 | > 100 | > 100 | > 100 | > 100 | > 100 | > 100 | > 100 |  |  |  |  |  |
| COc1cc(C(=O)N(Cc2cccnc2)C(=S)N(Cc2cccnc2)C(=O)c2cc(OC)c(OC)c(OC)c2)cc(OC)c1OC | > 100 | > 100 | > 100 | > 100 | > 100 |  | 97.5 |  |  |  |  |  |
| O=S(=O)(N=S(c1ccccc1)c1ccccc1)c1ccccc1 | > 100 | > 100 | > 100 | > 100 | > 100 |  |  |  |  |  |  |  |
| O=C1/C(=N/O)Cc2c(Br)ccc(Br)c21 | > 100 |  | > 100 | > 100 | > 100 | > 100 | 91.3 |  |  |  |  |  |
| Cn1cc(NC(=O)c2cc(NC(=O)CN=C(N)N)cn2C)cc1C(=O)NCCC(=N)N | > 100 | > 100 | > 100 | > 100 | > 100 |  | > 100 |  |  |  |  |  |
| O=C1C=C(C2=CC(=O)C(=O)c3ccccc32)c2ccccc2C1=O | > 100 | > 100 | 75.7 | > 100 |  | 53.3 | > 100 |  |  |  |  |  |
| COc1cc(Cn2c3c(c4cc(O)ccc42)Cc2ccccc2C3=O)cc(OC)c1 | > 100 | 57.3 | > 100 | > 100 | > 100 | > 100 |  |  |  |  |  |  |
| O=C(O)c1ccc([N+](=O)[O-])c2cc3cnccc3nc12 | 62.9 | 32.8 | 48.9 |  | > 100 | 36.2 | 32.4 |  |  |  |  |  |
| NN/C(=N\S(=O)(=O)c1cc2ccccc2s1)Nc1ccc(Cl)cc1 | 41.4 | 39 | 47.9 | 35.4 |  | 40.4 |  |  |  |  |  |  |
| Cc1ccc(-c2c(C#N)c(-c3ccc(Cl)cc3)c(C#N)c(=O)n2NS(=O)(=O)c2ccc(C)cc2)cc1 |  | > 100 | > 100 | > 100 | > 100 | > 100 | 71.9 |  |  |  |  |  |
| CN1CCC(O)(C(C)(C)C)CC1 | > 100 | > 100 | > 100 | > 100 | > 100 | > 100 |  |  |  |  |  |  |
| CNc1ccc(C(=O)CC(O)CCC(C)C2OC(=O)CC(O)CC(=O)CC(O)CC(O)CC(O)CC(O)CC3(O)CC(O)C(C(=O)OC)C(CC(O[C@@H]4O[C@H](C)[C@@H](O)[C@H](N)[C@@H]4O)/C=C/C=C/C=C/C=C/C=C/C=C/C=C/C2C)O3)cc1 (stereo partly drawn) | 4.84 | 2.99 |  |  | 6.19 | > 100 | 6.03 | 1.92 | 1.46 | 2.02 | 2.88 | 2.48 |
| C=CC(CCc1ccc(C(=O)OCC)cc1)c1c(N)nc(N)[nH]c1=O (stereo not drawn) | > 100 | > 100 | > 100 | > 100 | > 100 | > 100 |  |  |  |  |  |  |
| COC[C@@H](C[C@H]1O[C@@](O)([C@H](O)[C@@H]2C[C@H](OC)[C@@H](O)CC/C=C(C)/C=C/[C@@H](O[C@@H]3O[C@@H](C)[C@H](OC)[C@@H](O)[C@@H]3O)[C@H](C)/C=C(C)/C=C(C)/C=C(\C)C(=O)O2)[C@H](C)[C@@H](O)[C@H]1C)O[C@H]1C[C@](C)(O)[C@@H](O[C@H]2C[C@@H](OC)[C@H](O)[C@@H](C)O2)C(C)O1 (stereo partly drawn) | > 100 | > 100 | > 100 | > 100 | > 100 | > 100 |  |  |  |  |  |  |
| CC12C(=O)CC(CC1=O)C2(C)C |  | > 100 | > 100 | > 100 |  |  | > 100 |  |  |  |  |  |
| CCOc1cn(C2CC(O)C(CO)O2)c(=O)[nH]c1=O (stereo not drawn) | > 100 | > 100 |  | > 100 | > 100 | > 100 |  |  |  |  |  |  |
| CC(C)[Si](OC1=C(C(=O)N(C)c2cccc(Cl)c2)CCCC1)(C(C)C)C(C)C | 25.3 |  | 31 | 34.2 | 29 | 34.6 |  |  |  |  |  |  |
